The results in this text go back to US7820693B2, “1-(2H)-isoquinolone derivative” (Chugai Seiyaku Kabushiki Kaisha, priority 2005, dated 2010).

Some results are limits rather than exact numbers.

The first series concerns human colon cancer cell line HCT116. Put plainly: Measurement of cell growth inhibitory activity (Cell Counting Kit-8). It is filed as cell-based. To be noted: HCT-116, 96 h, HCT116, 2,000 cells/well, cultured 4 days. Here is the method: Cancer cell growth inhibitory activity was measured using Cell Counting Kit-8 manufactured by Dojindo Laboratories. The human colon cancer cell line HCT116 obtained from American Type Culture Collection (Virginia, U.S.A) was inoculated in a 96-well culture plate at a concentration of 2,000 cells/well. Thereafter, a certain concentration of compound was added thereto, and the obtained mixture was then cultured at 37° C. in 5% CO2, 95% air for 4 days. On the 4th day of the culture, a Cell Counting Kit-8 solution was added to the culture product, and absorbance (measurement wavelength: 450 nm; reference wavelength: 615 nm) was measured in accordance with protocols included with the kit. Thereafter, 50% growth inhibitory concentration (IC50) was calculated.
For orientation: Tetrazolium dyes change colour on reduction, which living cells bring about.
As usually defined, the IC50 is the point on the concentration scale where inhibition reaches its midpoint. For `O=C1OC(CN2CCOCC2)CN1c1ccc2cc(-c3ccccc3C(F)(F)F)[nH]c(=O)c2c1` (stereo not shown) [Example 33, 7-(5-morpholin-4-ylmethyl-2-oxooxazolidin-3-yl)-3-(2-trifluoromethylphenyl)-2H-isoquinolin-1-one], it took 290 nM to reach half-maximal inhibition (IC50).
Still for that read-out and setting: under `O=C(OC[C@@H]1COC(=O)N1c1ccc2cc(-c3ccccc3C(F)(F)F)[nH]c(=O)c2c1)c1ccccc1` [Example 11, (R)-2-oxo-3-[1-oxo-3-(2-trifluoromethylphenyl)-1,2-dihydroisoquinolin-7-yl]oxazolidin-4-ylmethyl benzoate] stands 450 nM; under `CC(=O)NCC1CN(c2ccc3cc(-c4ccccc4C(F)(F)F)[nH]c(=O)c3c2)C(=O)O1` (stereo not shown) [Example 32, N-{2-oxo-3-[1-oxo-3-(2-trifluoromethylphenyl)-1,2-dihydroisoquinolin-7-yl]oxazolidin-5-ylmethyl}acetamide], 530 nM; under `CN1C(=O)N(c2ccc3cc(-c4ccccc4C(F)(F)F)[nH]c(=O)c3c2)C[C@@H]1CO` [Example 36, 7-((R)-4-hydroxymethyl-3-methyl-2-oxoimidazolidin-1-yl)-3-(2-trifluoromethylphenyl)-2H-isoquinolin-1-one], 310 nM.
Same read-out and setting: under `O=C1N(CCO)CCN1c1ccc2cc(-c3ccccc3C(F)(F)F)[nH]c(=O)c2c1` [Example 9, 7-[3-(2-hydroxyethyl)-2-oxoimidazolidin-1-yl]-3-(2-trifluoromethylphenyl)-2H-isoquinolin-1-one] stands 530 nM; under `CN1C(=O)N(c2ccc3cc(-c4ccccc4C(F)(F)F)[nH]c(=O)c3c2)C[C@@H]1COCc1ccccc1` [Example 35, 7-((R)-4-benzyloxymethyl-3-methyl-2-oxoimidazolidin-1-yl)-3-(2-trifluoromethylphenyl)-2H-isoquinolin-1-one], 960 nM; under `O=C1O[C@@H](CO)CN1c1ccc2cc(-c3ccccc3C(F)(F)F)[nH]c(=O)c2c1` [Example 14, 7-((R)-5-hydroxymethyl-2-oxooxazolidin-3-yl)-3-(2-trifluoromethylphenyl)-2H-isoquinolin-1-one], 300 nM.
The same measure, in the same setting: with `O=C1OC(CCO)CN1c1ccc2cc(-c3ccccc3C(F)(F)F)[nH]c(=O)c2c1` (stereo not shown) [Example 29, 7-[5-(2-hydroxyethyl)-2-oxooxazolidin-3-yl]-3-(2-trifluoromethylphenyl)-2H-isoquinolin-1-one] the figure was 91 nM; with `O=C1C=C(OCc2ccccc2)CN1c1ccc2cc(-c3ccccc3C(F)(F)F)[nH]c(=O)c2c1` [Example 8, 7-(4-benzyloxy-2-oxo-2,5-dihydropyrrol-1-yl)-3-(2-trifluoromethylphenyl)-2H-isoquinolin-1-one], 200 nM.
On to `O=C1O[C@H](CO)CN1c1ccc2cc(-c3ccccc3OC(F)(F)F)[nH]c(=O)c2c1` [Example 27, 7-((S)-5-hydroxymethyl-2-oxooxazolidin-3-yl)-3-(2-trifluoromethoxyphenyl)-2H-isoquinolin-1-one], for which the midpoint of inhibition, the IC50, lay at 21 nM.
Regarding `O=C1CCCN1c1ccc2cc(-c3ccccc3C(F)(F)F)[nH]c(=O)c2c1` [Example 15, 7-(2-oxopyrrolidin-1-yl)-3-(2-trifluoromethylphenyl)-2H-isoquinolin-1-one], the midpoint of inhibition, the IC50, lay at 110 nM.

A further series deals with human colon cancer cell line HCT116 transplanted into the inguinal subcutis. Put plainly: Measurement of antitumor effect in tumor-bearing mouse. It is filed as in vivo, BALB/c nude mouse. Particulars: HCT116 xenograft, 300 mg/kg orally, twice (day 0 and 7 days after), vs control group. The protocol:
A representative example of the compound group of the present invention was measured in terms of antitumor effect.
Such antitumor effect was examined, using a tumor-bearing mouse produced by transplanting the human colon cancer cell line HCT116 obtained from American Type Culture Collection (Virginia, U.S.A) into the inguinal subcutis of a BALB/c nude mouse purchased from Charles River Laboratories Japan, Inc. The purchased nude mouse was quarantined for 1 week. Thereafter, approximately 5×10^6 HCT116 cells were transplanted subcutaneously. When the size of a tumor thereof became 200 mm^3, the mouse was subjected to the present experiment.
Each compound was suspended in a solution to be administered, and 0.2 ml of the solution was orally administered. Such administration was carried out twice in total, that is, on the initiation date of administration and 7 days after the first administration. The antitumor effect was calculated as a tumor growth inhibition by comparing the agent-treated group with a control group in terms of tumor growth, on 14 days after the initiation date of administration. Tumor growth inhibition (TGI)=(1−the tumor growth amount of agent-treated group/the tumor growth amount of control group)×100(%) The results are shown in Table 7.
As to `O=C1O[C@@H](CO)CN1c1ccc2cc(-c3ccccc3C(F)(F)F)[nH]c(=O)c2c1` [Example 14, 7-((R)-5-hydroxymethyl-2-oxooxazolidin-3-yl)-3-(2-trifluoromethylphenyl)-2H-isoquinolin-1-one], the “TGI (%) obtained 14 days after administration” value stood at 113%.

Test system in a further series: not listed separately
Put plainly: Measurement of solubility (HPLC of filtrate). To be noted: 50 mM sodium citrate-HCl buffer (pH 4.0), pH 4, aqueous buffer, thermodynamic from solid.
Description: Measurement was carried out by preparing a four-point calibration curve (4,000 μM, 1,000 μM, 250 μM, and 31.3 μM) according to the internal standard method. A sample solution (100% DMSO) was freeze-dried, and each solution was then added thereto. The obtained mixture was stirred for 2 hours. Thereafter, a solution in which the sample had been dissolved was filtrated, and the filtrate was then analyzed with an analyzer. As an analysis method, the filtrate was measured by HPLC (HPLC). As dissolving solutions, a saline solution or a 50 mM sodium citrate-HCl buffer (pH 4.0) solution were used.
A word on the solubility: it is how much of the substance goes into solution per volume. A low value points to little dissolved substance. Compound `CC(C)[C@H](N)C(=O)OC[C@H]1CN(c2ccc3cc(-c4ccccc4C(F)(F)F)[nH]c(=O)c3c2)C(=O)O1.Cl` [Example B9, (R)-2-oxo-3-[1-oxo-3-(2-trifluoromethylphenyl)-1,2-dihydroisoquinolin-7-yl]oxazolidin-5-ylmethyl(S)-2-amino-3-methyl-butanoate hydrochloride] registered a solubility at 2 h greater than 2000 µM.
The same measure, in the same setting: under `CNCC(=O)OC[C@@H]1CN(c2ccc3cc(-c4ccccc4C(F)(F)F)[nH]c(=O)c3c2)C(=O)O1.Cl` [Example B20, (S)-2-oxo-3-[1-oxo-3-(2-trifluoromethylphenyl)-1,2-dihydroisoquinolin-7-yl]oxazolidin-5-ylmethyl methylaminoacetate hydrochloride] stands greater than 2000 µM.

Still in this series, the particulars now being: no asterisk: saline solution, stirred 2 hours.
What is called Solubility is the dissolved amount per volume that the medium holds. For the compound `CC(C)(OC(=O)c1ccccc1C(=O)[O-])[C@@H]1CN(c2ccc3cc(-c4ccccc4C(F)(F)F)[nH]c(=O)c3c2)C(=O)O1.[Na+]` [Example C6], the Solubility was greater than 2000 µM.

The series is the same for the next values; noted with them: saline solution, saline or isotonic, thermodynamic from solid.
The compound `O=C(OCCOCCOCCOCCOCCOCCO)OC[C@@H]1CN(c2ccc3cc(-c4ccccc4C(F)(F)F)[nH]c(=O)c3c2)C(=O)O1` [Example C45, 2-[2-(2-{2-[2-(2-hydroxyethoxy)ethoxy]ethoxy}ethoxy)ethoxy]ethyl carbonate (S)-2-oxo-3-[1-oxo-3-(2-trifluoromethylphenyl)-1,2-dihydroisoquinolin-7-yl]oxazolidin-5-ylmethyl ester] yielded a solubility at 2 h greater than 2000 µM.
